Tested on: E. coli
Experiment: Test Example 1: inducing E. coli CGC with N-acetyl-D-glucosamine and antibiotics in different ratios (K-B method, microscopy)
Format: cell-based

CC(=O)N[C@@H]1[C@@H](O)[C@H](O)[C@@H](CO)O[C@H]1O [Compound (I), N-acetyl-D-glucosamine]
CGC formation (Compound (I) 150 mg, macrolide (spiramycin) 500 mg): − (if cell length was not greater than 50 μm and cell number was within the range from 0 to 4 in each visual field, it was deemed as CGC negative and was marked with “−”) | CGC formation (Compound (I) 150 mg, macrolide (spiramycin) 700 mg): − (if cell length was not greater than 50 μm and cell number was within the range from 0 to 4 in each visual field, it was deemed as CGC negative and was marked with “−”) | CGC formation (Compound (I) 150 mg, macrolide (spiramycin) 900 mg): − (if cell length was not greater than 50 μm and cell number was within the range from 0 to 4 in each visual field, it was deemed as CGC negative and was marked with “−”) | CGC formation (Compound (I) 150 mg, macrolide (spiramycin) 1100 mg): + (If cell length was more than 50 μm and cell number was more than 5 in each visual field, it was deemed as CGC positive and was marked with “+”) | CGC formation (Compound (I) 150 mg, macrolide (spiramycin) 1300 mg): + (If cell length was more than 50 μm and cell number was more than 5 in each visual field, it was deemed as CGC positive and was marked with “+”) | CGC formation (Compound (I) 150 mg, macrolide (spiramycin) 1500 mg): + (If cell length was more than 50 μm and cell number was more than 5 in each visual field, it was deemed as CGC positive and was marked with “+”) | CGC formation (Compound (I) 150 mg, quinoline (ciprofloxacin, norfloxacin) 150 mg): − (if cell length was not greater than 50 μm and cell number was within the range from 0 to 4 in each visual field, it was deemed as CGC negative and was marked with “−”) | CGC formation (Compound (I) 150 mg, quinoline (ciprofloxacin, norfloxacin) 200 mg): − (if cell length was not greater than 50 μm and cell number was within the range from 0 to 4 in each visual field, it was deemed as CGC negative and was marked with “−”) | CGC formation (Compound (I) 200 mg, aminoglycoside (kanamycin, gentamycin) 50 mg): − (if cell length was not greater than 50 μm and cell number was within the range from 0 to 4 in each visual field, it was deemed as CGC negative and was marked with “−”) | CGC formation (Compound (I) 200 mg, aminoglycoside (kanamycin, gentamycin) 100 mg): − (if cell length was not greater than 50 μm and cell number was within the range from 0 to 4 in each visual field, it was deemed as CGC negative and was marked with “−”) | CGC formation (Compound (I) 200 mg, aminoglycoside (kanamycin, gentamycin) 150 mg): − (if cell length was not greater than 50 μm and cell number was within the range from 0 to 4 in each visual field, it was deemed as CGC negative and was marked with “−”) | CGC formation (Compound (I) 200 mg, aminoglycoside (kanamycin, gentamycin) 200 mg): − (if cell length was not greater than 50 μm and cell number was within the range from 0 to 4 in each visual field, it was deemed as CGC negative and was marked with “−”) | CGC formation (Compound (I) 200 mg, aminoglycoside (kanamycin, gentamycin) 300 mg): − (if cell length was not greater than 50 μm and cell number was within the range from 0 to 4 in each visual field, it was deemed as CGC negative and was marked with “−”) | CGC formation (Compound (I) 200 mg, aminoglycoside (kanamycin, gentamycin) 400 mg): + (If cell length was more than 50 μm and cell number was more than 5 in each visual field, it was deemed as CGC positive and was marked with “+”) | CGC formation (Compound (I) 200 mg, aminoglycoside (kanamycin, gentamycin) 500 mg): + (If cell length was more than 50 μm and cell number was more than 5 in each visual field, it was deemed as CGC positive and was marked with “+”) | CGC formation (Compound (I) 200 mg, macrolide (spiramycin) 300 mg): − (if cell length was not greater than 50 μm and cell number was within the range from 0 to 4 in each visual field, it was deemed as CGC negative and was marked with “−”) | CGC formation (Compound (I) 200 mg, macrolide (spiramycin) 500 mg): − (if cell length was not greater than 50 μm and cell number was within the range from 0 to 4 in each visual field, it was deemed as CGC negative and was marked with “−”) | CGC formation (Compound (I) 200 mg, macrolide (spiramycin) 700 mg): − (if cell length was not greater than 50 μm and cell number was within the range from 0 to 4 in each visual field, it was deemed as CGC negative and was marked with “−”) | CGC formation (Compound (I) 200 mg, macrolide (spiramycin) 900 mg): − (if cell length was not greater than 50 μm and cell number was within the range from 0 to 4 in each visual field, it was deemed as CGC negative and was marked with “−”) | CGC formation (Compound (I) 200 mg, macrolide (spiramycin) 1100 mg): − (if cell length was not greater than 50 μm and cell number was within the range from 0 to 4 in each visual field, it was deemed as CGC negative and was marked with “−”) | CGC formation (Compound (I) 200 mg, macrolide (spiramycin) 1300 mg): + (If cell length was more than 50 μm and cell number was more than 5 in each visual field, it was deemed as CGC positive and was marked with “+”) | CGC formation (Compound (I) 200 mg, macrolide (spiramycin) 1500 mg): + (If cell length was more than 50 μm and cell number was more than 5 in each visual field, it was deemed as CGC positive and was marked with “+”) | CGC formation (Compound (I) 250 mg, aminoglycoside (kanamycin, gentamycin) 50 mg): − (if cell length was not greater than 50 μm and cell number was within the range from 0 to 4 in each visual field, it was deemed as CGC negative and was marked with “−”) | CGC formation (Compound (I) 250 mg, aminoglycoside (kanamycin, gentamycin) 100 mg): − (if cell length was not greater than 50 μm and cell number was within the range from 0 to 4 in each visual field, it was deemed as CGC negative and was marked with “−”) | CGC formation (Compound (I) 250 mg, aminoglycoside (kanamycin, gentamycin) 150 mg): − (if cell length was not greater than 50 μm and cell number was within the range from 0 to 4 in each visual field, it was deemed as CGC negative and was marked with “−”) | CGC formation (Compound (I) 250 mg, aminoglycoside (kanamycin, gentamycin) 200 mg): − (if cell length was not greater than 50 μm and cell number was within the range from 0 to 4 in each visual field, it was deemed as CGC negative and was marked with “−”) | CGC formation (Compound (I) 250 mg, aminoglycoside (kanamycin, gentamycin) 300 mg): − (if cell length was not greater than 50 μm and cell number was within the range from 0 to 4 in each visual field, it was deemed as CGC negative and was marked with “−”) | CGC formation (Compound (I) 250 mg, aminoglycoside (kanamycin, gentamycin) 400 mg): − (if cell length was not greater than 50 μm and cell number was within the range from 0 to 4 in each visual field, it was deemed as CGC negative and was marked with “−”) | CGC formation (Compound (I) 250 mg, aminoglycoside (kanamycin, gentamycin) 500 mg): + (If cell length was more than 50 μm and cell number was more than 5 in each visual field, it was deemed as CGC positive and was marked with “+”) | CGC formation (Compound (I) 250 mg, macrolide (spiramycin) 300 mg): − (if cell length was not greater than 50 μm and cell number was within the range from 0 to 4 in each visual field, it was deemed as CGC negative and was marked with “−”) | CGC formation (Compound (I) 250 mg, macrolide (spiramycin) 500 mg): − (if cell length was not greater than 50 μm and cell number was within the range from 0 to 4 in each visual field, it was deemed as CGC negative and was marked with “−”) | CGC formation (Compound (I) 250 mg, macrolide (spiramycin) 700 mg): − (if cell length was not greater than 50 μm and cell number was within the range from 0 to 4 in each visual field, it was deemed as CGC negative and was marked with “−”) | CGC formation (Compound (I) 250 mg, macrolide (spiramycin) 900 mg): − (if cell length was not greater than 50 μm and cell number was within the range from 0 to 4 in each visual field, it was deemed as CGC negative and was marked with “−”) | CGC formation (Compound (I) 250 mg, macrolide (spiramycin) 1100 mg): − (if cell length was not greater than 50 μm and cell number was within the range from 0 to 4 in each visual field, it was deemed as CGC negative and was marked with “−”) | CGC formation (Compound (I) 250 mg, macrolide (spiramycin) 1300 mg): − (if cell length was not greater than 50 μm and cell number was within the range from 0 to 4 in each visual field, it was deemed as CGC negative and was marked with “−”) | CGC formation (Compound (I) 250 mg, macrolide (spiramycin) 1500 mg): + (If cell length was more than 50 μm and cell number was more than 5 in each visual field, it was deemed as CGC positive and was marked with “+”) | CGC formation (Compound (I) 300 mg, aminoglycoside (kanamycin, gentamycin) 50 mg): − (if cell length was not greater than 50 μm and cell number was within the range from 0 to 4 in each visual field, it was deemed as CGC negative and was marked with “−”) | CGC formation (Compound (I) 300 mg, aminoglycoside (kanamycin, gentamycin) 100 mg): − (if cell length was not greater than 50 μm and cell number was within the range from 0 to 4 in each visual field, it was deemed as CGC negative and was marked with “−”) | CGC formation (Compound (I) 300 mg, aminoglycoside (kanamycin, gentamycin) 150 mg): − (if cell length was not greater than 50 μm and cell number was within the range from 0 to 4 in each visual field, it was deemed as CGC negative and was marked with “−”) | CGC formation (Compound (I) 300 mg, aminoglycoside (kanamycin, gentamycin) 200 mg): − (if cell length was not greater than 50 μm and cell number was within the range from 0 to 4 in each visual field, it was deemed as CGC negative and was marked with “−”) | CGC formation (Compound (I) 300 mg, aminoglycoside (kanamycin, gentamycin) 300 mg): − (if cell length was not greater than 50 μm and cell number was within the range from 0 to 4 in each visual field, it was deemed as CGC negative and was marked with “−”) | CGC formation (Compound (I) 300 mg, aminoglycoside (kanamycin, gentamycin) 400 mg): − (if cell length was not greater than 50 μm and cell number was within the range from 0 to 4 in each visual field, it was deemed as CGC negative and was marked with “−”) | CGC formation (Compound (I) 300 mg, aminoglycoside (kanamycin, gentamycin) 500 mg): − (if cell length was not greater than 50 μm and cell number was within the range from 0 to 4 in each visual field, it was deemed as CGC negative and was marked with “−”) | CGC formation (Compound (I) 300 mg, macrolide (spiramycin) 300 mg): − (if cell length was not greater than 50 μm and cell number was within the range from 0 to 4 in each visual field, it was deemed as CGC negative and was marked with “−”) | CGC formation (Compound (I) 300 mg, macrolide (spiramycin) 500 mg): − (if cell length was not greater than 50 μm and cell number was within the range from 0 to 4 in each visual field, it was deemed as CGC negative and was marked with “−”) | CGC formation (Compound (I) 300 mg, macrolide (spiramycin) 700 mg): − (if cell length was not greater than 50 μm and cell number was within the range from 0 to 4 in each visual field, it was deemed as CGC negative and was marked with “−”) | CGC formation (Compound (I) 300 mg, macrolide (spiramycin) 900 mg): − (if cell length was not greater than 50 μm and cell number was within the range from 0 to 4 in each visual field, it was deemed as CGC negative and was marked with “−”) | CGC formation (Compound (I) 300 mg, macrolide (spiramycin) 1100 mg): − (if cell length was not greater than 50 μm and cell number was within the range from 0 to 4 in each visual field, it was deemed as CGC negative and was marked with “−”) | CGC formation (Compound (I) 300 mg, macrolide (spiramycin) 1300 mg): − (if cell length was not greater than 50 μm and cell number was within the range from 0 to 4 in each visual field, it was deemed as CGC negative and was marked with “−”) | CGC formation (Compound (I) 300 mg, macrolide (spiramycin) 1500 mg): − (if cell length was not greater than 50 μm and cell number was within the range from 0 to 4 in each visual field, it was deemed as CGC negative and was marked with “−”)

From US20070191291A1, “Compound antibacterial drugs comprising n-acetyl-d-glucosamine” (priority 2003, published 2007)
